Reference: the supplement of paper PMC10307832

Key:
Experiment in all cases: relative viability (nuclei count vs DMSO), 5 days (fraction); higher = more cells survive
[1] = compound: CC1=CC(=CC=C1)NC2=NC(=CS2)C3=CC=NC=C3
Outline: (§1)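 Vehicle-anchored 1536-well plates of lung cancer cell lines, held overnight at 37 °C, were pinned with five library-drug doses (not always all listed) spaced by √10. No medium change followed over the next 5 days, after which the cells were fixed, permeabilised and Hoechst-stained together and imaged at 4×. Nuclei were counted with MetaXpress, and viability is treated-well nuclei over vehicle-well nuclei, taken as a median across plates. Plates passed with control CV below 25% and at least one doubling.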

Masitinib = compound: Cc1ccc(NC(=O)c2ccc(CN3CCN(C)CC3)cc2)cc1Nc1nc(-c2cccnc2)cs1 [Masitinib]
Outline: as §1

[2] = compound: CC1=CC(=CC=C1)NC2=NC(=CS2)C3=CC=NC=C3 + Cc1nc(NC(=O)N2CCC[C@H]2C(N)=O)sc1-c1ccnc(C(C)(C)C(F)(F)F)c1 [Alpelisib] (partner 2 µM)
Outline: (§2)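 Cells from lung cancer lines were seeded into 1536-well plates and, one day later, dosed by pin tool. Treatments were either a single drug or a fixed dose of an anchor drug with five library-drug doses (not always all listed) in √10 steps. After 5 days, nuclei were stained in a one-step fixation (final 0.05% Triton X-100, 1% formaldehyde, 1 ug/ml Hoechst) and counted on 4× images, and relative viability is the treated-to-vehicle nuclei ratio, as the median of duplicate plates.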

Masitinib + Bortezomib = compound: Cc1ccc(NC(=O)c2ccc(CN3CCN(C)CC3)cc2)cc1Nc1nc(-c2cccnc2)cs1 [Masitinib] + CC(C)C[C@H](NC(=O)[C@H](Cc1ccccc1)NC(=O)c1cnccn1)B(O)O [Bortezomib] (partner 0.002 µM)
Outline: as §2

Cell Line | relative viability ([1]; 0.08 µM) | relative viability ([1]; 0.253 µM) | relative viability ([1]; 0.8 µM) | relative viability ([1]; 2.53 µM) | relative viability ([1]; 8 µM) | relative viability (Masitinib; 0.01 µM) | relative viability (Masitinib; 0.03162 µM) | relative viability (Masitinib; 0.1 µM) | relative viability (Masitinib; 0.3162 µM) | relative viability (Masitinib; 1 µM) | relative viability ([2]; first compound 0.08 µM) | relative viability ([2]; first compound 0.253 µM) | relative viability ([2]; first compound 0.8 µM) | relative viability ([2]; first compound 2.53 µM) | relative viability ([2]; first compound 8 µM) | relative viability (Masitinib + Bortezomib; first compound 0.01 µM) | relative viability (Masitinib + Bortezomib; first compound 0.03162 µM) | relative viability (Masitinib + Bortezomib; first compound 0.1 µM) | relative viability (Masitinib + Bortezomib; first compound 0.3162 µM) | relative viability (Masitinib + Bortezomib; first compound 1 µM)
NCI-H2009 | 0.877 | 0.944 | 0.98 | 0.945 | 0.893 | 0.806 | 0.991 | 0.922 | 0.994 | 0.981 | 1.08 | 1.16 | 1.11 | 1.24 | 1.21 | 0.666 | 1.1 | 0.887 | 0.894 | 0.939
NCI-H596 | 0.917 | 0.883 | 0.86 | 0.948 | 0.803 | 0.934 | 1.13 | 0.949 | 0.901 | 0.837 | 0.421 | 0.402 | 0.35 | 0.412 | 0.401 | 1.09 | 1.06 | 1.2 | 1.01 | 1.23
NCI-H650 | 0.805 | 0.881 | 1.01 | 0.752 | 1.15 | 0.998 | 0.963 | 1.09 | 1.04 | 0.899 | 0.929 | 1.14 | 1.16 |  | 1.11 | 0.82 | 0.565 | 0.95 | 1.08 | 0.635
NCI-H1915 | 0.937 | 0.961 | 0.962 | 0.938 | 0.89 |  | 0.999 |  | 1 | 0.977 | 1.03 | 0.996 | 1.07 | 1.07 | 0.938 |  | 0.894 | 0.805 | 1.04 | 0.926
SW 1573 | 0.989 | 0.945 | 1.08 | 0.962 | 0.909 | 1.08 | 0.945 | 1.1 | 1.02 | 0.974 | 0.746 | 0.744 | 0.593 | 0.732 | 0.625 | 1.08 | 0.979 | 1.06 | 0.894 | 1
NCI-H1355 | 0.769 | 0.73 | 0.768 | 0.694 | 0.65 | 0.813 | 0.723 | 0.851 | 0.762 | 0.966 | 0.719 | 0.512 | 0.483 | 0.51 | 0.587 | 0.949 | 1.3 | 1.02 | 1.02 | 1.06
NCI-H1651 | 0.95 | 0.918 | 1.03 | 0.87 | 0.963 | 0.899 | 0.97 | 0.954 | 0.988 | 0.971 | 0.973 | 0.992 | 0.967 | 0.944 | 0.959 | 0.891 | 0.941 | 0.927 | 0.983 | 0.944
NCI-H2023 | 0.898 | 0.94 | 0.926 | 0.876 | 0.633 | 0.952 | 1.01 | 0.984 | 0.922 | 0.901 | 0.616 | 0.506 | 0.561 | 0.516 | 0.563 | 0.734 | 0.967 | 0.79 | 0.862 | 0.879
LOU-NH91 | 0.826 | 0.849 | 0.943 | 0.905 | 0.851 | 0.839 | 0.888 | 0.925 | 0.838 | 0.904 | 0.617 | 0.686 | 0.59 | 0.698 | 0.592 | 0.481 | 0.468 | 0.506 | 0.492 | 0.49
NCI-H3122 | 0.983 | 1.05 | 1.04 | 1.06 | 0.972 | 0.854 | 1.03 | 0.959 | 1 | 1.08 | 0.724 | 0.794 | 0.843 | 1.01 | 0.923 | 1.09 | 0.997 | 1.1 | 1.03 | 0.984
LCLC-97TM1 | 0.763 | 0.818 | 0.96 | 0.927 | 0.974 | 0.803 | 1.03 | 0.869 | 1.02 | 0.928 |  |  | 0.298 | 0.258 | 0.238 | 0.61 |  | 0.749 | 0.741 | 0.83
NCI-H647 | 0.816 | 0.87 | 0.797 | 0.869 | 0.76 | 0.926 | 0.959 | 1.07 | 0.983 | 0.873 | 1.05 | 0.935 | 1.11 | 1.08 | 0.751 | 1.03 | 0.768 | 1.1 | 1.05 | 1.09
NCI-H838 | 0.823 | 0.891 | 0.894 | 0.835 | 0.846 | 0.867 | 0.855 | 0.955 | 0.907 | 0.929 | 0.91 | 0.914 | 0.868 | 0.863 | 0.743 | 0.793 | 0.83 | 0.965 | 0.758 | 0.69
H3255 | 0.916 | 0.931 | 0.984 | 0.934 | 0.903 | 0.743 | 0.986 | 0.766 | 0.784 | 0.906 | 0.582 | 0.713 | 0.72 | 0.654 | 0.594 |  | 0.858 | 0.601 | 0.459 | 0.755
NCI-H1563 | 0.917 | 1.04 | 0.954 | 0.983 | 0.838 | 0.9 | 0.975 | 0.983 | 0.931 | 0.937 | 0.881 | 0.94 | 0.968 | 0.98 | 0.828 | 0.778 | 0.789 | 0.905 | 0.81 | 0.713
LXF-289 | 0.942 | 0.987 | 0.974 | 0.974 | 0.915 | 0.806 | 0.973 | 0.941 | 1 | 1.01 | 0.993 | 1.03 | 1.02 | 1.03 | 0.91 | 0.876 | 0.97 | 0.966 | 1.06 | 0.992
HCC-827 | 0.963 | 0.982 | 0.951 | 1 | 0.7 | 0.868 | 1.03 | 0.888 | 0.959 | 1.01 | 0.946 | 0.913 | 0.907 | 1.03 | 0.836 | 0.842 | 1.04 | 1.03 | 1.09 | 1.08
HCC-366 | 0.979 | 0.956 | 1.03 | 1.02 | 0.931 | 0.729 | 1.14 | 0.75 | 0.977 | 0.994 | 0.306 | 0.215 | 0.275 | 0.317 | 0.209 | 1.04 | 0.905 | 1.08 | 1.01 | 1.14
BEN | 0.928 | 0.95 | 0.913 | 0.897 | 1.03 | 1.06 | 0.845 | 1.16 | 0.953 | 0.975 | 1.11 | 0.973 | 1.07 | 0.856 | 0.91 | 1.15 | 0.662 | 0.874 | 0.666 | 0.831
NCI-H2347 | 0.948 | 0.864 | 0.749 | 0.982 | 0.964 | 0.88 | 0.911 | 1 | 1.02 | 0.966 | 0.821 | 1.11 | 0.614 | 1.07 | 0.993 | 0.829 | 1.02 | 0.938 | 0.899 | 0.903
201T | 0.939 | 0.959 | 0.959 | 0.74 | 0.712 | 0.79 | 1.03 | 0.825 | 0.783 | 0.976 | 1 | 1.05 | 1.04 | 0.96 | 0.853 | 0.918 | 1.09 | 0.99 | 1.09 | 1.07
NCI-H520 | 0.922 | 1.06 | 1.03 | 1.08 | 0.943 | 1.01 | 1.11 | 1.24 | 0.999 | 1.01 | 0.741 | 0.855 | 0.726 | 1.09 | 1.02 | 0.598 |  | 0.629 | 0.686 | 0.774
NCI-H727 | 0.698 | 0.737 | 0.808 | 0.791 | 0.924 | 0.947 | 0.948 | 1.08 | 0.945 | 0.92 | 0.44 | 0.497 | 0.53 | 0.508 | 0.469 | 0.846 | 0.847 | 1.02 | 1.04 | 0.744
HCC-15 | 0.916 | 0.936 | 1.02 | 0.915 | 0.807 | 0.774 | 0.983 | 0.836 | 0.962 | 0.959 | 0.792 | 0.699 | 0.845 | 0.841 | 0.879 | 0.714 | 1.09 | 0.847 | 1.21 | 1.04
ABC-1 | 0.795 | 0.786 | 1.08 | 0.786 | 0.41 | 0.857 | 0.902 | 1.08 | 0.853 | 0.93 | 0.928 | 0.891 | 0.873 | 0.907 | 0.967 | 0.324 | 0.296 | 0.287 | 0.306 | 0.256
LCLC-103H | 0.896 | 0.886 | 0.913 | 0.968 | 0.712 | 0.741 | 1.01 | 0.757 | 0.816 | 0.899 | 0.774 | 0.875 | 0.909 | 0.967 | 0.883 | 0.821 | 1.23 | 1.02 | 0.948 | 0.994
NCI-H460 | 0.965 | 0.908 | 0.936 | 0.884 | 0.857 | 0.864 | 1.01 | 0.949 | 0.876 | 0.983 | 0.331 | 0.368 | 0.375 | 0.37 | 0.307 | 1.03 | 1 | 1.2 | 1.15 | 1.28
EPLC-272H | 0.856 | 0.793 | 0.813 | 0.732 | 0.958 | 0.887 | 0.788 | 0.962 | 0.866 | 0.815 | 0.894 |  | 0.927 |  | 0.869 | 0.97 | 0.85 | 0.917 | 1.16 | 0.839
